Test results taken from US9174995B2, “Pyrrolotriazinone derivatives” (Merck Patent GmbH, priority 2012, dated 2015).

Columns and labels:
[1] = target: T1, GST-tagged Tankyrase-1 (1023-1327 aa) (Homo sapiens, UniProt O95271); assay: Tankyrase 1 autoparsylation assay (HTRF enzyme assay); format: biochemical
T1 construct: GST-tagged Tankyrase-1 (1023-1327 aa)
Method: Biochemical Activity Testing of Tankyrase 1 and 2: Autoparsylation Assay
(§1) The autoparsylation assay is run in two steps: the enzymatic reaction in which GST-tagged Tankyrase-1, resp Tankyrase-2 transferred biotinylated ADP-ribose to itself from biotinylated NAD as co-substrate and the detection reaction where a time resolved FRET between cryptate labelled anti-GST bound to the GST tag of the enzyme and Xlent® labelled-streptavidin bound the biotin-parsylation residue is analysed. The autoparsylation activity was detectable directly via the increase in HTRF signal.
The autoparsylation assay is performed as 384-well HTRF® (Cisbio, Codolet, France) assay format in Greiner low volume nb 384-well microtiter plates and is used for high throughput screen. 250 nM GST-tagged Tankyrase-1 (1023-1327 aa), respectively about 250 nM GST-tagged Tankyrase-2 (873-1166 aa) and 5 μM bio-NAD (Biolog, Life science Inst., Bremen, Germany) as co-substrate are incubated in a total volume of 5 μl (50 mM HEPES, 4 mM Mg-chloride, 0.05% Pluronic F-68, 1.4 mM DTT, 0.5% DMSO, pH 7.7) in the absence or presence of the test compound (10 dilution concentrations) for 90 min at 30° C. The reaction is stopped by the addition of 1 μl 50 mM EDTA solution. 2 μl of the detection solution (1.6 μM SA-Xlent® (Cisbio, Codolet, France), 7.4 nM Anti-GST-K® (Eu-labelled anti-GST, Cisbio, Codolet, France) in 50 mM HEPES, 800 mM KF, 0.1% BSA, 20 mM EDTA, 0.1% CHAPS, pH 7.0) are added. After 1 h incubation at room temperature the HTRF is measured with an Envision multimode reader (Perkin Elmer LAS Germany GmbH) at excitation wavelength 340 nm (laser mode) and emission wavelengths 615 nm and 665 nm. The ratio of the emission signals is determined. The full value used is the inhibitor-free reaction. The pharmacological zero value used is XAV-939 (Tocris) in a final concentration of 5 μM. The inhibitory values (IC50) are determined using either the program Symyx Assay Explorer® or Condosseo® from GeneData.

[2] = system: Tankyrases; assay: Cellular inhibition of Tankyrase: increase of Axin2 level in DLD1 cells (Luminex); format: cell-based; details: 24 hours, read-out: EC50 tankyrase ½ (cell assay)
Method: Measurement of Cellular Inhibition of Tankyrase
Since Tankyrases have been described to modulate cellular level of Axin2 (Huang et al., 2009; Nature) the increase of Axin2 level is used as readout for determination of cellular inhibition of Tankyrases in a Luminex based assay.
Cells of the colon carcinoma cell line DLD1 are plated in 96 well plates with 1.5×10^4 cells per well. Next day, cells are treated with a serial dilution of test compound in seven steps as triplicates with a final DMSO concentration of 0.3%. After 24 hours, cells are lysed in lysis buffer (20 mM Tris/HCl pH 8.0, 150 mM NaCl, 1% NP40, 10% Glycerol) and lysates are cleared by centrifugation through a 96 well filter plate (0.65 μm). Axin2 protein is isolated from cell lysates by incubation with a monoclonal anti-Axin2 antibody (R&D Systems #MAB6078) that is bound to fluorescent carboxybeads. Then, bound Axin2 is specifically detected with a polyclonal anti-Axin2 antibody (Cell Signaling #2151) and an appropriate PE-fluorescent secondary antibody. The amount of isolated Axin2 protein is determined in a Luminex^200 machine (Luminex Corporation) according to the manufacturer's instruction by counting 100 events per well. Inhibition of Tankyrase by test compounds results in higher levels of Axin2 which directly correlates with an increase of detectable fluorescence. As controls cells are treated with solvent alone (neutral control) and with a Tankyrase reference inhibitor IWR-2 (3E-06 M) which refers as control for maximum increase of Axin2. For analysis, the obtained data are normalized against the untreated solvent control and fitted for determination of the EC50 values using the Assay Explorer software (Accelrys).

[3] = target: T2, His-tagged Parp-1 (Homo sapiens, UniProt P09874); assay: PARP-1 autoparsylation assay (HTRF); format: biochemical; details: PARP-1 autoparsylation HTRF assay
T2 construct: purchased Enzo Life Sciences GmbH, Lörrach, Germany
Source text: Description of the PARP1 Assay
Biochemical Activity Testing of PARP-1: Autoparsylation Assay
as §1, with “His-tagged Parp-1 transfers” for “GST-tagged Tankyrase-1, resp Tankyrase-2 transferred”, “ADP-ribose/ADP-ribose” for “ADP-ribose”, “NAD/NAD” for “NAD”, “anti-His antibody” for “anti-GST”, “His” for “GST”, “is” for “was”
The autoparsylation assay is performed as 384-well HTRF® (Cisbio, Codolet, France) assay format in Greiner low volume nb 384-well microtiter plates. 35 nM His-tagged Parp-1 (human, recombinant, Enzo Life Sciences GmbH, Lörrach, Germany) and a mixture of 125 nM bio-NAD (Biolog, Life science Inst., Bremen, Germany) and 800 nM NAD as co-substrate are incubated in a total volume of 6 μl (100 mM Tris/HCl, 4 mM Mg-chloride, 0.01% IGEPAL® CA630, 1 mM DTT, 0.5% DMSO, pH 8, 13 ng/μl activated DNA (BPS Bioscience, San Diego, US)) in the absence or presence of the test compound (10 dilution concentrations) for 150 min at 23° C. The reaction is stopped by the addition of 4 μl of the Stop/detection solution (70 nM SA-Xlent® (Cisbio, Codolet, France), 2.5 nM Anti-His-K® (Eu-labelled anti-His, Cisbio, Codolet, France) in 50 mM HEPES, 400 mM KF, 0.1% BSA, 20 mM EDTA, pH 7.0). After 1 h incubation at room temperature the HTRF is measured with an Envision multimode reader (Perkin Elmer LAS Germany GmbH) at excitation wavelength 340 nm (laser mode) and emission wavelengths 615 nm and 665 nm. The ratio of the emission signals is determined. The full value used is the inhibitor-free reaction. The pharmacological zero value used is Olaparib (LClabs, Woburn, US) in a final concentration of 1 μM. The inhibitory values (IC50) are determined using either the program Symyx Assay Explorer® or Condosseo® from GeneData.

T1 sequence (O95271 1023-1327): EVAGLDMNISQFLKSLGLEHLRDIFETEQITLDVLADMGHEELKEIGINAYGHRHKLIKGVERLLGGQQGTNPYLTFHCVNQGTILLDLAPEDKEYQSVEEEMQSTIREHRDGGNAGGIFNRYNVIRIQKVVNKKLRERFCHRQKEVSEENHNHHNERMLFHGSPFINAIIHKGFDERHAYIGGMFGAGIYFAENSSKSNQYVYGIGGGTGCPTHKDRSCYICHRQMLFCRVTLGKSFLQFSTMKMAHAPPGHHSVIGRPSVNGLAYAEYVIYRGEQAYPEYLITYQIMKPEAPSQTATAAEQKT
T2 sequence (P09874 whole entry): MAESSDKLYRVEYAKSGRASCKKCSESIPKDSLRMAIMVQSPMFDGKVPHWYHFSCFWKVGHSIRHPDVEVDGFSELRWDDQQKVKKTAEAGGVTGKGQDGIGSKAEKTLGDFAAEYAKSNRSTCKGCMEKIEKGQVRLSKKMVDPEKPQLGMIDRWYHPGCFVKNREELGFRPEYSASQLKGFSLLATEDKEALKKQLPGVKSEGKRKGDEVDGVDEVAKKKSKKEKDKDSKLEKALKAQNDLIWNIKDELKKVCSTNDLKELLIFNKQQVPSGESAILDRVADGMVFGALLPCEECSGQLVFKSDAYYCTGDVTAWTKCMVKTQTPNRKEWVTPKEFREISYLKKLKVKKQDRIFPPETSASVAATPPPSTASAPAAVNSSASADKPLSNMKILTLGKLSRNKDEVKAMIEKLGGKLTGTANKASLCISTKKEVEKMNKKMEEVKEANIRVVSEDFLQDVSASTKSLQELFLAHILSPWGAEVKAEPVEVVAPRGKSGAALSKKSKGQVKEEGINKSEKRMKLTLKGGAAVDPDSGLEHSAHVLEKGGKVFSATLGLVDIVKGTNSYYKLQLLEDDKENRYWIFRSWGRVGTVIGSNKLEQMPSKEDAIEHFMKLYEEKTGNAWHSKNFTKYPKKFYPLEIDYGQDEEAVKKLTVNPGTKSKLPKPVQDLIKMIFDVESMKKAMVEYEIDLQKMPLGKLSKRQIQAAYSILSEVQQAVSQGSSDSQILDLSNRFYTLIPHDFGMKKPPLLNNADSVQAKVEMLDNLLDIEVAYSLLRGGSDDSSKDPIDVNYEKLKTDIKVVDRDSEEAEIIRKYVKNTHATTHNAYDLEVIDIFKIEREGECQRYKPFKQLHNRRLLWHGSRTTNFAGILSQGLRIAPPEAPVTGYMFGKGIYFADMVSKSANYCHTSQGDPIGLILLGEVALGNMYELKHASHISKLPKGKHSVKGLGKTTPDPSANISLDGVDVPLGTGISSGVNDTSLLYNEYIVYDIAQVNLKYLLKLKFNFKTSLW

Structure (SMILES) | IC50 [1] [nM] | EC50 [2] [nM] | IC50 [3] [nM]
CC(C)(O)c1ccc(-c2nn3cccc3c(=O)[nH]2)cc1 [Compound A5, 2-[4-(1-hydroxy-1-methyl-ethyl)-phenyl]-3H-pyrrolo[2,1-f][1,2,4]triazin-4-one] | < 300 | 300 to 3000 | 3000 to 50000
Cn1cc(-c2ccc(-c3nn4cccc4c(=O)[nH]3)cc2)cn1 [Compound A7, 2-[4-(1-methyl-1H-pyrazol-4-yl)-phenyl]-3H-pyrrolo[2,1-f][1,2,4]triazin-4-one] | < 300 | 300 to 3000 | 3000 to 50000
Cc1cc2c(=O)[nH]c(-c3ccc(C(C)(C)O)cc3)nn2c1 [Compound A11, 2-[4-(1-hydroxy-1-methyl-ethyl)phenyl]-6-methyl-3H-pyrrolo[2,1-f][1,2,4]triazin-4-one] | < 300 | 300 to 3000 | 300 to 3000
CC(C)(O)c1ccc(-c2nn3cc(F)cc3c(=O)[nH]2)cc1 [Compound A12, 6-fluoro-2-[4-(1-hydroxy-1-methyl-ethyl)phenyl]-3H-pyrrolo[2,1-f][1,2,4]triazin-4-one] | < 300 | 300 to 3000 | 300 to 3000
Cc1cc2c(=O)[nH]c(-c3ccc(-c4cnn(C)c4)cc3)nn2c1 [Compound A13, 6-methyl-2-[4-(1-methylpyrazol-4-yl)phenyl]-3H-pyrrolo-[2,1-f][1,2,4]triazin-4-one] | < 300 | 300 to 3000 | 3000 to 50000
CCC(O)(CC)c1ccc(-c2nn3cccc3c(=O)[nH]2)cc1 [Compound A14, 2-[4-(1-ethyl-1-hydroxy-propyl)-phenyl]-3H-pyrrolo[2,1-f][1,2,4]triazin-4-one] | < 300 | < 300 | 3000 to 50000
CC(C)(OCCO)c1ccc(-c2nn3cccc3c(=O)[nH]2)cc1 [Compound A15, 2-{4-[1-(2-hydroxy-ethoxy)-1-methyl-ethyl]-phenyl}-3H-pyrrolo[2,1-f][1,2,4]triazin-4-one] | < 300 | 300 to 3000 | 3000 to 50000
CC(C)(O)c1ccc(-c2nn3cc(Cl)cc3c(=O)[nH]2)cc1 [Compound A18, 6-chloro-2-[4-(1-hydroxy-1-methyl-ethyl)-phenyl]-3H-pyrrolo[2,1-f][1,2,4]triazin-4-one] | < 300 | 300 to 3000 | 3000 to 50000
O=c1[nH]c(-c2ccc(C3(O)CCCC3)cc2)nn2cccc12 [Compound A21, 2-[4-(1-hydroxy-cyclopentyl)-phenyl]-3H-pyrrolo[2,1-f][1,2,4]-triazin-4-one] | < 300 | 300 to 3000 | 3000 to 50000
